From patent publication US11986471B2, “Compounds and methods of use” (Tango Therapeutics, Inc., priority 2018, dated 2024)
pIC50: −log10 of the molar value.

Tests used:
Format in all cases: biochemical
PRMT5 [1] = target: T1, PRMT5 (Homo sapiens, UniProt O14744); experiment: PRMT5 IC50 assay in the presence of MTA as cofactor; conditions: for pIC50: PRMT5, MTA as cofactor
T1 construct: purchased Viva (custom protein)
Text: (§1) Table 1a indicates IC50 values (μM) against PRMT5 for exemplary compounds in the presence of SAM as cofactor, with no cofactor and with MTA as cofactor, respectively (columns 3-5). […] The Ki values can be calculated from the IC50 values as described in the Examples section. As detailed in the Examples section, for the assay performed in the presence of SAM, IC50=Ki×1.5 (Ki=IC50/1.5). For the assay performed in the presence of MTA, IC50=Ki×13.5 (Ki=IC50/13.5). Column 6 indicates the ratio between the Ki of compounds in the presence of SAM and the Ki of compounds in the presence of MTA

PRMT5 [2] = target: T1, PRMT5; experiment: PRMT5 IC50 assay with no cofactor
Text: as §1

PRMT5 [3] = target: T1, PRMT5; experiment: PRMT5 IC50 assay in the presence of SAM as cofactor
Text: as §1

[4] = ratio between Ki in the presence of SAM and Ki in the presence of MTA
[5] = ratio between the Ki in the presence of SAM and the Ki in the presence of MTA

T1 sequence (O14744 whole entry): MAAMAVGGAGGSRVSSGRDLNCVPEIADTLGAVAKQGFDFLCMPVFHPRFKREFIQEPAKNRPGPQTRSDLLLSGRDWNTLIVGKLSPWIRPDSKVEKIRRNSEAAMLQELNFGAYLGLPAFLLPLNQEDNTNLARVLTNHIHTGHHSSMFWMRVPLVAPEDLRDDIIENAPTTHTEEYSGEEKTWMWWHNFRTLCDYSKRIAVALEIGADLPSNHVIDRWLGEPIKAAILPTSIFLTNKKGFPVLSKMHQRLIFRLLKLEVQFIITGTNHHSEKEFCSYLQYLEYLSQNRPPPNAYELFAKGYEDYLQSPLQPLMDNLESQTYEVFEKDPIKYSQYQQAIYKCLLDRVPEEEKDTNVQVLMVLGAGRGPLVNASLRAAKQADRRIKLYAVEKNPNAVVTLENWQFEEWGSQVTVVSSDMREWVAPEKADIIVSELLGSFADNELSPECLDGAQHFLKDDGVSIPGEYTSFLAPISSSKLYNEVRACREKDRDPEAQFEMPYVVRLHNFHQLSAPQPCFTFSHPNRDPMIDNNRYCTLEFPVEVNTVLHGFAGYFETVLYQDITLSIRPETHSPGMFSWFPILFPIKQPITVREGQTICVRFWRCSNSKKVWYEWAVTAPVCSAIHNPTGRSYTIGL
T1 sequence (Q9BQA1 whole entry partner): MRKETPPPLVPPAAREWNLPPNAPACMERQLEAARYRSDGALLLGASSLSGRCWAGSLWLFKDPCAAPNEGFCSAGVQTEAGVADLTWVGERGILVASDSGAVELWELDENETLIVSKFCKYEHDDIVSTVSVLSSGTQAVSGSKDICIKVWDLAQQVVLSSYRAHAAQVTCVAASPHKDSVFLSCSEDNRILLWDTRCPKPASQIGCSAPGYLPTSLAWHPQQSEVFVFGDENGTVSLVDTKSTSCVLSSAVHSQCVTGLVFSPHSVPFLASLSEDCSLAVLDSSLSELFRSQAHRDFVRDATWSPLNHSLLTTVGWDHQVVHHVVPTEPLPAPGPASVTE

Q: What does the source list for `CC(=O)N1[C@@H]2CC[C@H]1C[C@@H](Nc1cc(C(=O)NC[C@H](O)CN3CCc4cc(OCc5ocnc5C)ccc4C3)ncn1)C2` [Compound 630, 6-{[(1R,3R,5S)-8-acetyl-8-azabicyclo[3.2.1]octan-3-yl]amino}-N-[(2S)-2-hydroxy-3-{6-[(4-methyl-1,3-oxazol-5-yl)methoxy]-1,2,3,4-tetrahydroisoquinolin-2-yl}propyl]pyrimidine-4-carboxamide]?
A: pIC50 (PRMT5 [1]): 6.30 to 7.30; SAM/MTA Ratio (PRMT5 [1]; [4]): A (a Ki ratio greater than or equal to 10 fold between the Ki in the presence of SAM and the Ki in the presence of MTA); pIC50 (PRMT5 [2]; read-out: No Co-factor IC50): ≤ 5.30; pIC50 (PRMT5 [3]): 5.30 to 6.30

Q: How did the pIC50 (PRMT5 [1]) turn out when `O=C(NC[C@H](O)CN1CCc2cc(OCc3cn[nH]c3)cc(F)c2C1)c1ccnc(NC2CCC2)c1` [Compound 596, 2-(cyclobutylamino)-N-[(2S)-3-[8-fluoro-6-(1H-pyrazol-4-ylmethoxy)-3,4-dihydro-1H-isoquinolin-2-yl]-2-hydroxy-propyl]pyridine-4-carboxamide] was run?
A: 6.30 to 7.30

Q: And the “SAM/MTA Ratio” value (PRMT5 [1]; [5])?
A: A (a Ki ratio greater than or equal to 10 fold between the Ki in the presence of SAM and the Ki in the presence of MTA)

Q: And the pIC50 (PRMT5 [2])?
A: 5.30 to 6.30

Q: What about the pIC50 (PRMT5 [3]) of the same compound?
A: 5.30 to 6.30

Q: `CO[C@H]1C[C@H](Nc2cc(C(=O)NC[C@H](O)CN3CCc4c(ccc(OCc5cnco5)c4C)C3)ccn2)C1` [Compound 591, N-[(2S)-2-hydroxy-3-{5-methyl-6-[(1,3-oxazol-5-yl)methoxy]-1,2,3,4-tetrahydroisoquinolin-2-yl}propyl]-2-{[(1r,3r)-3-methoxycyclobutyl]amino}pyridine-4-carboxamide] was tested. Which pIC50 (PRMT5 [1]) did it give?
A: 6.30 to 7.30

Q: And the “SAM/MTA Ratio” value (PRMT5 [1]; [5])?
A: A (a Ki ratio greater than or equal to 10 fold between the Ki in the presence of SAM and the Ki in the presence of MTA)

Q: What about the pIC50 (PRMT5 [2]) of the same compound?
A: ≤ 5.30

Q: What about the pIC50 (PRMT5 [3]) of the same compound?
A: 6.30 to 7.30

Q: With `CC(=O)N1C[C@@H]2[C@H](C1)[C@H]2Nc1cc(C(=O)NC[C@H](O)CN2CCc3cc(OCc4ocnc4C)ccc3C2)ncn1` [Compound 620, 6-{[(1R,5S,6R)-3-acetyl-3-azabicyclo[3.1.0]hexan-6-yl]amino}-N-[(2S)-2-hydroxy-3-[6-[(4-methyl-1,3-oxazol-5-yl)methoxy]-1,2,3,4-tetrahydroisoquinolin-2-yl]propyl]pyrimidine-4-carboxamide] as the compound, how does the pIC50 (PRMT5 [1]) read?
A: 5.30 to 6.30

Q: And the “SAM/MTA Ratio” value (PRMT5 [1]; [5])?
A: A (a Ki ratio greater than or equal to 10 fold between the Ki in the presence of SAM and the Ki in the presence of MTA)

Q: And the pIC50 (PRMT5 [2])?
A: ≤ 5.30

Q: And the pIC50 (PRMT5 [3])?
A: 5.30 to 6.30

Q: What does the source list for `O[C@@H](CNc1nccc(-c2sccc2Br)n1)CN1CCc2cc(OCc3cnco3)ccc2C1` [Compound 331, (S)-1-((4-(3-bromothiophen-2-yl)pyrimidin-2-yl)amino)-3-(6-(oxazol-5-ylmethoxy)-3,4-dihydroisoquinolin-2(1H)-yl)propan-2-ol]?
A: pIC50 (PRMT5 [1]): 5.30 to 6.30; SAM/MTA Ratio (PRMT5 [1]; [4]): A (a Ki ratio greater than or equal to 10 fold between the Ki in the presence of SAM and the Ki in the presence of MTA); pIC50 (PRMT5 [2]; read-out: No Co-factor IC50): 5.30 to 6.30; pIC50 (PRMT5 [3]): 5.30 to 6.30

Q: How did the pIC50 (PRMT5 [1]) turn out when `O=C(NC[C@H](O)CN1CCc2c(ccc(OCc3cnn[nH]3)c2Cl)C1)c1ccnc(NC2CCC2)c1` [Compound 269, N-[(2S)-3-[5-chloro-6-(1H-triazol-5-ylmethoxy)-3,4-dihydro-1H-isoquinolin-2-yl]-2-hydroxy-propyl]-2-(cyclobutylamino)pyridine-4-carboxamide] was run?
A: 5.30 to 6.30

Q: And the “SAM/MTA Ratio” value (PRMT5 [1]; [4])?
A: A (a Ki ratio greater than or equal to 10 fold between the Ki in the presence of SAM and the Ki in the presence of MTA)

Q: And the pIC50 (PRMT5 [2]; read-out: No Co-factor IC50)?
A: ≤ 5.30

Q: What about the pIC50 (PRMT5 [3]) of the same compound?
A: 5.30 to 6.30

Q: What does the source list for `CCCN(C)c1cc(C(=O)NC[C@H](O)CN2CCc3c(ccc(OCc4cnco4)c3Cl)C2)cc(NC2CCC2)n1` [Compound 453, (S)—N-(3-(5-chloro-6-(oxazol-5-ylmethoxy)-3N-dihydroisoquinolin-2(1H)-yl)-2-hydroxypropyl)-2-(cyclobutylamino)-6-(methyl(propyl)amino)isonicotinamide]?
A: pIC50 (PRMT5 [1]): 5.30 to 6.30; SAM/MTA Ratio (PRMT5 [1]; [5]): A (a Ki ratio greater than or equal to 10 fold between the Ki in the presence of SAM and the Ki in the presence of MTA); pIC50 (PRMT5 [2]): ≤ 5.30; pIC50 (PRMT5 [3]): 5.30 to 6.30

Q: With `Cn1nccc1COc1ccc2c(c1)CCN(C[C@@H](O)CNC(=O)c1cc(NC3CCC3)ccn1)C2` [Compound 542, (S)-4-(cyclobutylamino)-N-(2-hydroxy-3-(6-((1-methyl-1H-pyrazol-5-yl)methoxy)-3N-dihydroisoquinolin-2(1H)-yl)propyl)picolinamide] as the compound, how does the pIC50 (PRMT5 [1]) read?
A: 6.30 to 7.30

Q: And the “SAM/MTA Ratio” value (PRMT5 [1]; [5])?
A: A (a Ki ratio greater than or equal to 10 fold between the Ki in the presence of SAM and the Ki in the presence of MTA)

Q: And the pIC50 (PRMT5 [2])?
A: ≤ 5.30

Q: And the pIC50 (PRMT5 [3])?
A: 5.30 to 6.30

Q: What does the source list for `Cc1ncoc1COc1ccc2c(c1)CCN(C[C@@H](O)CNC(=O)c1ccnc(NC3CCN(C)C(=O)C3)c1)C2` (stereo partly shown) [Compound 627]?
A: pIC50 (PRMT5 [1]): 6.30 to 7.30; SAM/MTA Ratio (PRMT5 [1]; [4]): A (a Ki ratio greater than or equal to 10 fold between the Ki in the presence of SAM and the Ki in the presence of MTA); pIC50 (PRMT5 [2]; read-out: No Co-factor IC50): ≤ 5.30; pIC50 (PRMT5 [3]): 6.30 to 7.30

Q: `CNC(=O)CN1CCC(Nc2cc(C(=O)NC[C@H](O)CN3CCc4c(ccc(OCc5cnco5)c4C)C3)ncn2)CC1` [Compound 524, N-[(2S)-2-hydroxy-3-{5-methyl-6-[(1,3-oxazol-5-yl)methoxy]-1,2,3,4-tetrahydroisoquinolin-2-yl}propyl]-6-{[1-[(methylcarbamoyl)methyl]piperidin-4-yl}amino)pyrimidine-4-carboxamide] was tested. Which pIC50 (PRMT5 [1]) did it give?
A: 5.30 to 6.30

Q: And the “SAM/MTA Ratio” value (PRMT5 [1]; [5])?
A: A (a Ki ratio greater than or equal to 10 fold between the Ki in the presence of SAM and the Ki in the presence of MTA)

Q: What about the pIC50 (PRMT5 [2]) of the same compound?
A: ≤ 5.30

Q: And the pIC50 (PRMT5 [3])?
A: 5.30 to 6.30

Q: How did the pIC50 (PRMT5 [1]) turn out when `Cc1c(OCc2cnco2)ccc2c1CCN(C[C@@H](O)CNC(=O)c1cc(NC3CN(C(=O)CC(C)C)C3)ncn1)C2` [Compound 565, N-[(2S)-2-hydroxy-3-{5-methyl-6-[(1,3-oxazol-5-yl)methoxy]-1,2,3,4-tetrahydroisoquinolin-2-yl}propyl]-6-{[1-(3-methylbutanoyl)azetidin-3-yl]amino}pyrimidine-4-carboxamide] was run?
A: 5.30 to 6.30

Q: What about the “SAM/MTA Ratio” value (PRMT5 [1]; [5]) of the same compound?
A: A (a Ki ratio greater than or equal to 10 fold between the Ki in the presence of SAM and the Ki in the presence of MTA)

Q: And the pIC50 (PRMT5 [2])?
A: ≤ 5.30

Q: And the pIC50 (PRMT5 [3])?
A: 5.30 to 6.30

Q: How did the pIC50 (PRMT5 [1]) turn out when `Cc1ncoc1COc1ccc2c(c1C)CCN(C[C@@H](O)CNC(=O)c1cc(NC3CCC3)nc(N3CCCCC3)c1)C2` [Compound 557, 2-(cyclobutylamino)-N-[(2S)-2-hydroxy-3-{5-methyl-6-[(4-methyl-1,3-oxazol-5-yl)methoxy]-1,2,3,4-tetrahydroisoquinolin-2-yl}propyl]-6-(piperidin-1-yl)pyridine-4-carboxamide] was run?
A: 6.30 to 7.30

Q: What about the “SAM/MTA Ratio” value (PRMT5 [1]; [5]) of the same compound?
A: A (a Ki ratio greater than or equal to 10 fold between the Ki in the presence of SAM and the Ki in the presence of MTA)

Q: What about the pIC50 (PRMT5 [2]) of the same compound?
A: ≤ 5.30

Q: And the pIC50 (PRMT5 [3])?
A: 5.30 to 6.30

Q: `Cc1c(OCc2ccnn2C)ccc2c1CCN(C[C@@H](O)CNC(=O)c1ccnc(NC3CCC3)c1)C2` [Compound 161, 2-(cyclobutylamino)-N-[(2S)-2-hydroxy-3-[5-methyl-6-[(2-methylpyrazol-3-yl)methoxy]-3,4-dihydro-1H-isoquinolin-2-yl]propyl]pyridine-4-carboxamide] was tested. Which pIC50 (PRMT5 [1]) did it give?
A: 5.30 to 6.30

Q: What about the “SAM/MTA Ratio” value (PRMT5 [1]; [4]) of the same compound?
A: A (a Ki ratio greater than or equal to 10 fold between the Ki in the presence of SAM and the Ki in the presence of MTA)

Q: And the pIC50 (PRMT5 [2]; read-out: No Co-factor IC50)?
A: ≤ 5.30

Q: What about the pIC50 (PRMT5 [3]) of the same compound?
A: 5.30 to 6.30

Q: How did the pIC50 (PRMT5 [1]) turn out when `CCCC(=O)N1CC(Nc2cc(C(=O)NC[C@H](O)CN3CCc4cc(OCc5ocnc5C)c(F)cc4C3)ccn2)C1` [Compound 643, 2-[(1-butanoylazetidin-3-yl)amino]-N-[(2S)-3-[7-fluoro-6-[(4-methyloxazol-5-yl)methoxy]-3,4-dihydro-1H-isoquinolin-2-yl]-2-hydroxy-propyl]pyridine-4-carboxamide] was run?
A: 6.30 to 7.30

Q: And the “SAM/MTA Ratio” value (PRMT5 [1]; [4])?
A: A (a Ki ratio greater than or equal to 10 fold between the Ki in the presence of SAM and the Ki in the presence of MTA)

Q: And the pIC50 (PRMT5 [2]; read-out: No Co-factor IC50)?
A: 5.30 to 6.30

Q: What about the pIC50 (PRMT5 [3]) of the same compound?
A: 6.30 to 7.30

Q: `Cc1c(OCc2cnco2)ccc2c1CCN(C[C@@H](O)CNC(=O)c1cc(N[C@H]3C[C@H](C(=O)N4CCCCC4)C3)ncn1)C2` [Compound 526] was tested. Which pIC50 (PRMT5 [1]) did it give?
A: 6.30 to 7.30

Q: And the “SAM/MTA Ratio” value (PRMT5 [1]; [5])?
A: A (a Ki ratio greater than or equal to 10 fold between the Ki in the presence of SAM and the Ki in the presence of MTA)

Q: What about the pIC50 (PRMT5 [2]) of the same compound?
A: ≤ 5.30

Q: What about the pIC50 (PRMT5 [3]) of the same compound?
A: 5.30 to 6.30

Q: What does the source list for `Cc1ncoc1COc1ccc2c(c1)CCN(C[C@@H](O)CNC(=O)c1cc(NC3CCN(C)C(=O)C3)ncn1)C2` (stereo partly drawn) [Compound 613, N-[(2S)-2-hydroxy-3-{6-[(4-methyl-1,3-oxazol-5-yl)methoxy]-1,2,3,4-tetrahydroisoquinolin-2-yl}propyl]-6-[(1-methyl-2-oxopiperidin-4-yl)amino]pyrimidine-4-carboxamide]?
A: pIC50 (PRMT5 [1]): 6.30 to 7.30; pIC50 (PRMT5 [2]): ≤ 5.30; pIC50 (PRMT5 [3]): 6.30 to 7.30

Q: `Cc1c(OCc2cnco2)ccc2c1CCN(C[C@@H](O)CNC(=O)c1ccnc(NC34CC(C3)C4)c1)C2` [Compound 514, (S)-2-(bicyclo[1.1.1]pentan-1-ylamino)-N-(2-hydroxy-3-(5-methyl-6-(oxazol-5-ylmethoxy)-3N-dihydroisoquinolin-2(1H)-yl)propyl)isonicotinamide] was tested. Which pIC50 (PRMT5 [1]) did it give?
A: 5.30 to 6.30

Q: What about the “SAM/MTA Ratio” value (PRMT5 [1]; [5]) of the same compound?
A: A (a Ki ratio greater than or equal to 10 fold between the Ki in the presence of SAM and the Ki in the presence of MTA)

Q: What about the pIC50 (PRMT5 [2]) of the same compound?
A: ≤ 5.30

Q: What about the pIC50 (PRMT5 [3]) of the same compound?
A: 5.30 to 6.30
